# Laboratory results published in US11912701B2, “Protein kinase inhibitors for promoting liver regeneration or reducing or preventing hepatocyte death” (HEPAREGENIX GMBH, priority 2018, dated 2024).
# Experiments:
# JNK1 = JNK1 (Homo sapiens, UniProt P45983); assay: KINOMEscan competition binding assay, JNK1; design: M1/Q384; host or cells: HEK-293; settings: ratio PoC (off-target)/PoC (MKK4)
# Experimental: (§1) The assay was performed by combining three components: DNA-tagged kinase; immobilized ligand; and a test compound. The ability of the test compound to compete with the immobilized ligand was measured via quantitative PCR of the DNA tag. The technology is described in detail in Fabian, M. A. et al. A small molecule-kinase interaction map for clinical kinase inhibitors. Nat. […] Nat.
# (§2) For investigation of the affinity to MKK4, BRaf, MKK7 and JNK1, the kinases were produced in HEK-293 cells and subsequently tagged with DNA for qPCR detection. […] The liganded beads were blocked with excess biotin and washed with blocking buffer (SEABLOCK™ (Pierce), 1% BSA, 0.05% TWEEN®20, 1 mM DTT) to remove unbound ligand and to reduce nonspecific binding. […] All reactions were performed in polystyrene 96-well plates in a final volume of 0.135 mL. […] The kinase concentration in the eluates was measured by qPCR.
# (§3) The test compounds were provided as 10 mM stock solutions. The test solutions at indicated final concentrations were prepared at DiscoverX.
# (§4) Potency of representative examples against the protein kinases MKK4, BRaf, MKK7 and JNK1 expressed as residual percent of control binding (PoC), was determined at a concentration of 100 nM. The determined potencies are categorized as follows:
# (§5) The binding selectivity of representative examples against the protein kinases BRaf, MKK7 and JNK1, altogether denominated as “off-targets” is determined by the ratios of PoC (off-target)/PoC (MKK4).
# MKK7 = biological target: T1, MKK7 (Homo sapiens, UniProt O14733); assay: KINOMEscan competition binding assay, MKK7; design: M1/R419; host or cells: HEK-293; settings: ratio PoC (off-target)/PoC (MKK4)
# T1 sequence (O14733 1-419): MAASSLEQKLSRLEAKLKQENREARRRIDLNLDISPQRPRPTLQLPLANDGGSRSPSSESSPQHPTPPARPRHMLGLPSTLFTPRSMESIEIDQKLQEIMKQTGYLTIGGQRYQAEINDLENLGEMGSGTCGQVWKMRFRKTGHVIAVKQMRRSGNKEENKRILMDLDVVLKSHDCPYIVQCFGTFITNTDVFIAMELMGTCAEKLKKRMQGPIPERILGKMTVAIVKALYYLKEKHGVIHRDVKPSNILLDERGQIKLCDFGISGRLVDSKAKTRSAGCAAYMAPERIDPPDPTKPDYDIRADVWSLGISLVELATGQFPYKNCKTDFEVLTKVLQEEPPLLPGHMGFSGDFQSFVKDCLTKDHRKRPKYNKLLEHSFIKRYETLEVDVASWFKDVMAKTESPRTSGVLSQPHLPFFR
# Experimental: as §1, §2, §3, §4, §5
# BRaf = biological target: T2, BRaf (Homo sapiens, UniProt P15056); assay: KINOMEscan competition binding assay, BRaf; settings: ratio PoC (off-target)/PoC (MKK4)
# T2 construct: purchased ProQinase GmbH, Freiburg, Germany (33PanQinase Assay Service)
# Experimental: as §1, §2, §3, §4, §5
# MKK4 [1] = biological target: T3, MKK4 (Homo sapiens, UniProt P45985); assay: KINOMEscan competition binding assay, MKK4; settings: residual percent of control binding (PoC) at 100 nM
# T3 construct: S84/D399; host or cells: HEK-293
# T3 sequence (P45985 84-399): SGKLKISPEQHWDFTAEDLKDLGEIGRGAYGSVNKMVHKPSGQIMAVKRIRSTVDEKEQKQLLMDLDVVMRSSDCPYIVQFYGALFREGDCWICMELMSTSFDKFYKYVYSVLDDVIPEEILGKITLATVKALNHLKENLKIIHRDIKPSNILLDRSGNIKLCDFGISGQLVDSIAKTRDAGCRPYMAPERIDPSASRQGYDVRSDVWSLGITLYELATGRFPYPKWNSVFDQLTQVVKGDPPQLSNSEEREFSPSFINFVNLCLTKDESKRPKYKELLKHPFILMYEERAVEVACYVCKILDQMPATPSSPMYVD
# Experimental: as §1, §2, §3
# Potency of representative examples against the protein kinases MKK4, BRaf, MKK7 and JNK1 expressed as residual percent of control binding (PoC), was determined at a concentration of 100 nM. The determined potencies are categorized as follows: […]
# MKK4 [2] = biological target: T4, MKK4 (Homo sapiens, UniProt P45985); assay: 33PanQinase enzyme assay, MKK4; type: biochemical; settings: single concentration 100 nM; read-out: Potency MKK4 (residual activity, assay at single concentration)
# T4 construct: purchased ProQinase GmbH, Freiburg, Germany (33PanQinase Assay Service)
# T4 sequence (P45985 1-399): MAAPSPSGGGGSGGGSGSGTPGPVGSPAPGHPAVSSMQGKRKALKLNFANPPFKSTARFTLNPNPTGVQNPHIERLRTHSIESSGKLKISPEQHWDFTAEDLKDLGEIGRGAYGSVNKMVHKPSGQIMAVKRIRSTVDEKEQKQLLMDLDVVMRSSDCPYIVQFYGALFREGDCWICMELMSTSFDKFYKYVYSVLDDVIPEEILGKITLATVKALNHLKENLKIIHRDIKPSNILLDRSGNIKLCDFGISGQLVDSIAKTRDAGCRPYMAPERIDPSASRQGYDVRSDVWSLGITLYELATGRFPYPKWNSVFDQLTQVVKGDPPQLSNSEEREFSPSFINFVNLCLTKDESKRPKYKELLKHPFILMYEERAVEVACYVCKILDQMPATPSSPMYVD
# Method in brief: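 Inhibition measured as 33Pi transfer to substrate after a 60-min, 30 °C reaction, acid-stopped and scintillation-counted.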
# Sequence of JNK1 (P45983 1-384 isoform P45983-2): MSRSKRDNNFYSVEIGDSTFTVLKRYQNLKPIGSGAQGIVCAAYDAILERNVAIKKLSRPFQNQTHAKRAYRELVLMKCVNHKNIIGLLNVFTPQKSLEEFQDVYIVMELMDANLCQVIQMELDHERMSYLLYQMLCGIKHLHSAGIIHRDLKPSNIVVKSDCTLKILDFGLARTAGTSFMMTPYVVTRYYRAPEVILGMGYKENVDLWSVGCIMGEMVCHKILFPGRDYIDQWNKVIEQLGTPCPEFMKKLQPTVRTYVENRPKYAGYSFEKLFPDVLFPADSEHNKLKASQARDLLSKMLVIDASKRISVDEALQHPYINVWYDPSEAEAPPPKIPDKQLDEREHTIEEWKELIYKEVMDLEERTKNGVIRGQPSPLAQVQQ
# T2 sequence (P15056 whole entry, species assumed): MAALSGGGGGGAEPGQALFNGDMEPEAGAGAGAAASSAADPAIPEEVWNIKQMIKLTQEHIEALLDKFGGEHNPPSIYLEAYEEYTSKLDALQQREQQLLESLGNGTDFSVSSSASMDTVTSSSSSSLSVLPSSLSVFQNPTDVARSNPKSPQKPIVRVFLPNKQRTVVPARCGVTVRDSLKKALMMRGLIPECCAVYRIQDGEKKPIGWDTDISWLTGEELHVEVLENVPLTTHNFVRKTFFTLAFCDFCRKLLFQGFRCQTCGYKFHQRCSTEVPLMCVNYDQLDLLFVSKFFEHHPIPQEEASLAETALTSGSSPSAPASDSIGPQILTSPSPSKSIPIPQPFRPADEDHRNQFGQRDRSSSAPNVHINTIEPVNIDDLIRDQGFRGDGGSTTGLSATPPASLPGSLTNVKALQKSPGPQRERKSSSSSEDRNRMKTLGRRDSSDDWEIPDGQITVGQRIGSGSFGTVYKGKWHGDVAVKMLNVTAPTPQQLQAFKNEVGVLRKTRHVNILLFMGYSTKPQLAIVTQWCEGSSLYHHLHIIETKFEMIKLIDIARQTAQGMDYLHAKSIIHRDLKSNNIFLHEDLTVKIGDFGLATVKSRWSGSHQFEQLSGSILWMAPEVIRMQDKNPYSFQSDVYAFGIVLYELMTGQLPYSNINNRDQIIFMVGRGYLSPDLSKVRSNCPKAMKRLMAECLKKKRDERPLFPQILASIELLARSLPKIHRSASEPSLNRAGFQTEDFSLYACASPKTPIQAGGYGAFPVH
Structure (SMILES),selectivity based on % Ctrl @100 nM vs. JNK1 (JNK1),selectivity based on % Ctrl @100 nM vs. MKK7 (MKK7),selectivity based on % Ctrl @100 nM vs. Braf (BRaf),MKK4 [% Ctrl @ 100 nM (MKK4 [1]),remaining activity at 0.1 µM (MKK4 [2]) [%]
"CCCS(=O)(=O)Nc1ccc(Br)c(C(=O)c2c[nH]c3ncc(-c4ccc(Cl)cc4)cc23)c1Br [Example 2b, N-(2,4-dibromo-3-(5-(4-chlorophenyl)-1H-pyrrolo[2,3-b]pyridine-3-carbonyl)phenyl)propane-1-sulfonamide]",◯ (3 ≥ Ratio),◯ (3 ≥ Ratio),◯ (3 ≥ Ratio),◯ (30 ≤ PoC),70 to 90
CCCS(=O)(=O)Nc1c(Cl)ccc(C(=O)c2c[nH]c3ncc(-c4ccc(Cl)cc4)cc23)c1F [Example 2d],+ (10 ≥ ratio > 3),+ (10 ≥ ratio > 3),+ (10 ≥ ratio > 3),+ (3 ≤ PoC < 30),70 to 90
"COc1ccc(-c2cnc3[nH]cc(C(=O)c4c(F)ccc(NS(=O)(=O)Cc5ccccc5)c4F)c3c2)cc1 [Example 26, N-(2,4-difluoro-3-(5-(4-methoxyphenyl)-1H-pyrrolo[2,3-b]pyridine-3-carbonyl)phenyl)-1-phenylmethanesulfonamide]",++ (100 ≥ ratio > 10),++ (100 ≥ ratio > 10),++ (100 ≥ ratio > 10),++ (1 ≤ PoC < 3),–
"O=C(c1c(F)ccc(NS(=O)(=O)Cc2ccccc2)c1F)c1c[nH]c2ncc(-c3ccc(F)cc3)cc12 [Example 28, N-(2,4-difluoro-3-(5-(4-fluorophenyl)-1H-pyrrolo[2,3-b]pyridine-3-carbonyl)phenyl)-1-phenylmethanesulfonamide]",++ (100 ≥ ratio > 10),++ (100 ≥ ratio > 10),++ (100 ≥ ratio > 10),++ (1 ≤ PoC < 3),–
"CCCS(=O)(=O)Nc1ccc(F)c(C(=O)c2c[nH]c3ncc(-c4ccc(OCC5COC(C)(C)O5)cc4)cc23)c1F (stereo not shown) [Example 29, N-(3-(5-(4-((2,2-dimethyl-1,3-dioxolan-4-yl)methoxy)phenyl)-1H-pyrrolo[2,3-b]pyridine-3-carbonyl)-2,4-difluorophenyl)propane-1-sulfonamide]",++ (100 ≥ ratio > 10),++ (100 ≥ ratio > 10),◯ (3 ≥ Ratio),+ (3 ≤ PoC < 30),–
"CCCS(=O)(=O)Nc1ccc(F)c(C(=O)c2c[nH]c3ncc(-c4ccc(OCC(O)CO)cc4Cl)cc23)c1F (stereo not shown) [Example 30, N-(3-(5-(2-chloro-4-(2,3-dihydroxypropoxy)phenyl)-1H-pyrrolo[2,3-b]pyridine-3-carbonyl)-2,4-difluorophenyl)propane-1-sulfonamide]",+++ (Ratio > 100),+++ (Ratio > 100),++ (100 ≥ ratio > 10),+++ (PoC < 1),–
"CCCS(=O)(=O)Nc1ccc(F)c(C(=O)c2c[nH]c3ncc(-c4ccc(OCC(O)CO)cc4)cc23)c1F (stereo not shown) [Example 31, N-(3-(5-(4-(2,3-dihydroxypropoxy)phenyl)-1H-pyrrolo[2,3-b]pyridine-3-carbonyl)-2,4-difluorophenyl)propane-1-sulfonamide]",+++ (Ratio > 100),+++ (Ratio > 100),◯ (3 ≥ Ratio),+++ (PoC < 1),–
"CCCS(=O)(=O)Nc1ccc(F)c(C(=O)c2c[nH]c3ncc(-c4cccc(Cl)c4)cc23)c1F [Example 32, N-(3-(5-(3-chlorophenyl)-1H-pyrrolo[2,3-b]pyridine-3-carbonyl)-2,4-difluorophenyl)propane-1-sulfonamide]",+ (10 ≥ ratio > 3),+ (10 ≥ ratio > 3),◯ (3 ≥ Ratio),+ (3 ≤ PoC < 30),70 to 90
"CCCS(=O)(=O)Nc1ccc(F)c(C(=O)c2c[nH]c3ncc(-c4ccc(F)cc4F)cc23)c1F [Example 33, N-(3-(5N-(2,4-difluorophenyl)-1H-pyrrolo[2,3-b]pyridine-3-carbonyl)-2,4-difluorophenyl)propane-1-sulfonamide]",++ (100 ≥ ratio > 10),++ (100 ≥ ratio > 10),++ (100 ≥ ratio > 10),+ (3 ≤ PoC < 30),70 to 90
"CCCS(=O)(=O)Nc1ccc(F)c(C(=O)c2c[nH]c3ncc(-c4ccccc4F)cc23)c1F [Example 34, N-(2,4-difluoro-3-(5-(2-fluorophenyl)-1H-pyrrolo[2,3-b]pyridine-3-carbonyl)phenyl)propane-1-sulfonamide]",++ (100 ≥ ratio > 10),++ (100 ≥ ratio > 10),++ (100 ≥ ratio > 10),+ (3 ≤ PoC < 30),70 to 90
"CCCS(=O)(=O)Nc1ccc(F)c(C(=O)c2c[nH]c3ncc(-c4ccc(OC)cc4OC)cc23)c1F [Example 104, N-(3-(5-(2,4-dimethoxyphenyl)-1H-pyrrolo[2,3-b]pyridine-3-carbonyl)-2,4-difluorophenyl)propane-1-sulfonamide]",++ (100 ≥ ratio > 10),++ (100 ≥ ratio > 10),+ (10 ≥ ratio > 3),+ (3 ≤ PoC < 30),–
